Data taken from patent US9511070B2, “Heterocyclyl carboxamides for treating viral diseases” (NOVADRUG, LLC, priority 2012, dated 2016).
“Also recorded” adds a separate entry of the source.

What was measured:
[1] = test system: Bovine Viral Diarrhea Virus strain NADL; experiment: Anti-BVDV efficacy, cytopathic (CPE) assay in Bovine Turbinate cells (MTT); type: cell-based; details: cell survival at 10 μM compared to untreated control; TABLE 4(a)
Experimental: Assay for Anti-BVDV efficacy. Bovine Turbinate (BT) cells maintained as monolayers in disposable cell culture labware are used for the antiviral efficacy test. Prior to testing, host cell cultures are seeded onto the 96-well cell culture plates and used approximately 48 hours after seeding. […] The growth medium (GM) and maintenance medium (MM) include Dulbecco's Modified Eagle Media (DMEM) with L-glutamine (ATCC #30-2002), 10% Horse serum and penicillin/streptomycin (10,000 units of penicillin and 10,000 μg of streptomycin per mL, Life Technologies #15140-122 or similar) for a final concentration of 100 units penicillin and 100 μg streptomycin in the medium. Bovine Viral Diarrhea Virus strain NADL from BSLI high-titer virus stock is used. Prior to use, aliquots of the stock virus are removed and thawed from a −70° C. freezer. The BVDV is diluted in a maintenance medium (MM) to obtain 0.1 Multiplicity of Infection (MOI). Cytopathic (CPE) assay. CPE refers to degenerative changes in BT tissue culture induced by BVDV as a consequence of its multiplication. BT cell cultures are washed with PBS, and 100 μL aliquots of MM are added to the cells and incubated in a CO2 incubator for 2 hours. After incubation, the MM is removed; the cells washed again with PBS and overlaid with 100 μL of the different concentrations of test compounds. The plates are incubated in a CO2 incubator for 48 to 72 hours. […] This assay is a colorimetric assay that measures the activity of enzymes that reduce MTT to the purple color formazan dye. CPE is confirmed using an Inverted Compound Microscope.

JFH-1 HCV [2] = details: viral titer at 5 μM or 15 μM compared to untreated control
Source text: In vitro assay for anti-HCV efficacy. HCV studies typically involve infected patients and chimpanzees. However, recently, a robust HCV infection system was developed with cells derived from the Huh-7 human hepatoma cell line. It is based on the unique JFH-1 HCV consensus cDNA derived from an HCV patient. Using reverse genetics, the infectious virus can be rescued from this HCV clone. The recovered viable JFH virus can be passaged serially in Huh-7 cells. For this reason, this system is amenable for evaluating the activity of test compound for their anti-HCV efficacy.
(§1) Briefly, 6×10^3 Huh7-1 cells are incubated overnight in each well of collagen-coated BioCoat 96-well plates (BD Biosciences, Bedford, Mass.) in 0.2 ml 10% medium composed of Dulbecco's modified Eagle's medium supplemented with 10% fetal bovine serum. Subsequently, at 2 day intervals, the cultures are replenished with fresh 0.2 ml 10% medium. After the cultures become confluent, they continue to be replenished at 2 day intervals with fresh 0.2 ml 10% medium that also includes 1% dimethyl sulfoxide (DMSO). After 20 days of these replenishments, the Huh7-1 cultures are incubated with fresh 1% medium (same as 10% medium except that the serum level is 1%) containing HCV at a multiplicity of infection (MOI) of 0.05 focus forming units (ffu)/cell. The HCV (JFH-lwt Huh7) stock titer is 1.5×10^5 ffu/mL. The next day (day 1 post-infection) and 2 days later (day 3 post-infection) the media are replenished with fresh 1% medium containing the test compounds dissolved in DMSO. On the 5th day of treatment with the compounds, cell lysates are collected for RNA isolation and Real Time-quantitative Reverse Transcription Polymerase Chain Reaction (RT-qPCR) and culture media are collected for cytotoxicity analysis.
(§2) Total RNA is isolated from cells by the guanidine thiocyanate method using standard protocols. One μg RNA is used for cDNA synthesis using TaqMan reverse transcription reagents (Applied Biosystems, Foster City, Calif.) followed by real-time PCR using an Applied Biosystems 7300 real-time thermocycler. Thermal cycling consists of initial denaturation of 10 min at 95° C. followed by 40 cycles of denaturation (15 s at 95° C.) and annealing/extension (1 m at 60° C.). HCV and human glyceraldehyde-3-phosphate dehydrogenase (GAPDH) RNA levels are determined relative to a standard curve of serial dilutions of plasmid containing JFH-1 HCV or GAPDH cDNA. The PCR primers used to detect GAPDH and HCV are: GAPDH (NMX002046) 5′-[…]-3′(SEQ ID NO: 16) (sense) and 5′-[…]-3′(SEQ ID NO: 17) (anti-sense) JFH-1 HCV (AB047639) 5′-[…]-3′(SEQ ID NO: 18) (sense) and 5′-[…]-3′(SEQ ID NO: 19) (anti-sense).

JFH-1 HCV [3] = experiment: Co-therapy treatment for HCV infection (intracellular HCV RNA, with and without IFN-β-1b); type: cell-based, Hepatitis C virus; details: for Fold Inhibition: vs untreated control
Experimental: as §1, §2
Co-therapy Treatment for HCV Infection. […] The compounds described herein are tested to determine whether they increase the efficacy of either RBV, IFN-β-1b, or a combination thereof. Using the protocol described for determining chemical-evoked reduction in intracellular HCV RNA, the cells are treated with and without 10 U/mL IFN-β-1b in combination with 2.5 or 10 μM of the compounds described herein and for comparison with 10 μM MA and 80 μM RBV.

Row | SMILES | HCV Antiviral Activity (JFH-1 HCV [2]) | further results
1 | Cc1c[nH]c2ncnc(N3CCC(C(=O)Nc4cccc(-c5cccc(F)c5)c4)CC3)c12 [Example 102] | – | BVDV Antiviral Activity [1]: +++ (“+++” corresponds to ≧75 cell survival at 10 μM)
2 | Cc1c[nH]c2ncnc(N3CCC(C(=O)Nc4ccc(-c5nc6ccccc6[nH]5)cc4)CC3)c12 [Example 99] | – | BVDV Antiviral Activity [1]: +++ (“+++” corresponds to ≧75 cell survival at 10 μM)
3 | Cc1c[nH]c2ncnc(N3CCC(C(=O)Nc4ccc(Oc5ccccc5F)cc4)CC3)c12 [Example 101] | – | BVDV Antiviral Activity [1]: ++ (“++” corresponds to >50 but <75 cell survival at 10 μM)
4 | Cc1c[nH]c2ncnc(N3CCC(C(=O)Nc4cccc(-c5cc6ccccc6[nH]5)c4)CC3)c12 [Example 100] | – | BVDV Antiviral Activity [1]: +++ (“+++” corresponds to ≧75 cell survival at 10 μM)
5 | O=C(Nc1cccc(-c2cc3ccccc3[nH]2)c1)C1CCN(C(=O)c2cncs2)CC1 [Example 60] | + (“+” corresponds to ≦60% viral titer at 15 μM) | BVDV Antiviral Activity [1]: +++ (“+++” corresponds to ≧75 cell survival at 10 μM)
6 | NC(=O)c1ncn([C@@H]2O[C@H](CO)[C@@H](O)[C@H]2O)n1 [RBV, ribavirin, reference compound] | – | Average HCV copies/μg RNA (JFH-1 HCV [3]; 80 μM +IFN-β-1b (10 U/mL)): 1.8 × 10^5 copies/μg RNA; Fold Inhibition (JFH-1 HCV [3]; 80 μM +IFN-β-1b (10 U/mL)): 52 fold; Average HCV copies/μg RNA (JFH-1 HCV [3]; 80 μM, alone): 5.0 × 10^6 copies/μg RNA; Fold Inhibition (JFH-1 HCV [3]; 80 μM, alone): 2 fold
7 | COc1cccc(CN2CCC(C(=O)Nc3ccc(-c4nc5ccccc5[nH]4)cc3)CC2)c1 [Example 58] | ++ (“++” corresponds to ≦60% viral titer at 5 μM) | BVDV Antiviral Activity [1]: +++ (“+++” corresponds to ≧75 cell survival at 10 μM)
8 | CCOc1ccc(CN2CCC(C(=O)Nc3ccccc3-c3cccc(OC)c3)CC2)cc1 [Example 48] | − (“−” corresponds to >60% viral titer at 15 μM (highest concentration tested)) | –
9 | O=C(Nc1cccc(-c2ccco2)c1)C1CCN(C(=O)CCc2ccco2)CC1 [Example 53] | − (“−” corresponds to >60% viral titer at 15 μM (highest concentration tested)) | –
10 | COc1cccc(CN2CCC(C(=O)Nc3cccc(-c4cccc(Cl)c4)c3)CC2)c1O [Example 63] | ++ (“++” corresponds to ≦60% viral titer at 5 μM) | –
11 | O=C(Nc1cccc(-c2cscn2)c1)C1CCN(C/C=C/c2ccc(F)cc2)CC1 [Example 52] | − (“−” corresponds to >60% viral titer at 15 μM (highest concentration tested)) | –
12 | COc1ccc(CN2CCC(C(=O)Nc3ccc(Oc4ccccc4F)cc3)CC2)c(O)c1 [Example 21] | +++ (“+++” corresponds to ≦30% viral titer at 5 μM) | –
13 | O=C(Nc1cccc(-c2cccc(F)c2)c1)C1CCN(Cc2cccc3c2OCO3)CC1 [Example 56] | − (“−” corresponds to >60% viral titer at 15 μM (highest concentration tested)) | –
14 | CC(C)n1cc(CN2CCC(C(=O)Nc3cccc(-c4cc5ccccc5[nH]4)c3)CC2)cn1 [Example 38] | + (“+” corresponds to ≦60% viral titer at 15 μM) | –
15 | CCc1nc(CN2CCC(C(=O)Nc3cccc(-c4cccc(F)c4)c3)CC2)c(C)[nH]1 [Example 68] | + (“+” corresponds to ≦60% viral titer at 15 μM) | –
16 | O=C(Nc1ccc(-c2nc3ccccc3[nH]2)cc1)C1CCN(Cc2cccc(F)c2)CC1 [Example 96] | + (“+” corresponds to ≦60% viral titer at 15 μM) | –

Row | SMILES | HCV Antiviral Activity (JFH-1 HCV [2]) | further results
17 | CC(C)n1cc(CN2CCC(C(=O)Nc3cccc(-c4cccc(Cl)c4)c3)CC2)cn1 [Example 82] | + (“+” corresponds to ≦60% viral titer at 15 μM) | –
18 | CCN1CCC(N2CCC(C(=O)Nc3ccc(Oc4ccccc4F)cc3)CC2)CC1 [Example 75] | +++ (“+++” corresponds to ≦30% viral titer at 5 μM) | –
19 | O=C(Nc1ccc(Oc2ccccc2)nc1)C1CCN(Cc2ccc(Cl)s2)CC1 [Example 83] | ++ (“++” corresponds to ≦60% viral titer at 5 μM) | –
20 | O=C(Nc1cccc(-c2cccc(F)c2)c1)C1CCN(Cc2cccc(O)c2)CC1 [Example 29] | + (“+” corresponds to ≦60% viral titer at 15 μM) | –
21 | CCn1cc(CN2CCC(C(=O)Nc3cccc(-c4cccc(Cl)c4)c3)CC2)cn1 [Example 78] | ++ (“++” corresponds to ≦60% viral titer at 5 μM) | –
22 | COc1cccc(-c2ccccc2NC(=O)C2CCN(Cc3ccccc3OC)CC2)c1 [Example 25] | ++ (“++” corresponds to ≦60% viral titer at 5 μM) | –
23 | Cc1ccc(CN2CCC(C(=O)Nc3ccc(Oc4ccccc4F)cc3)CC2)o1 [Example 94] | + (“+” corresponds to ≦60% viral titer at 15 μM) | –
24 | CCCCc1nc(CN2CCC(C(=O)Nc3cccc(-c4cccc(F)c4)c3)CC2)c[nH]1 [Example 27] | ++ (“++” corresponds to ≦60% viral titer at 5 μM) | –
25 | COc1cccc(CN2CCC(C(=O)Nc3cccc(-c4cccc(F)c4)c3)CC2)c1OC [Example 84] | + (“+” corresponds to ≦60% viral titer at 15 μM) | –
26 | CCc1ccc(CN2CCC(C(=O)Nc3ccc(-c4nc5ccccc5[nH]4)cc3)CC2)o1 [Example 59] | ++ (“++” corresponds to ≦60% viral titer at 5 μM) | BVDV Antiviral Activity [1]: ++ (“++” corresponds to >50 but <75 cell survival at 10 μM)
27 | COc1cccc(-c2ccccc2NC(=O)C2CCN(CC(C)(C)C)CC2)c1 [Example 39] | + (“+” corresponds to ≦60% viral titer at 15 μM) | –
28 | O=C(Nc1cccc(-c2cccc(F)c2)c1)C1CCN(Cc2cccc3cccnc23)CC1 [Example 16] | ++ (“++” corresponds to ≦60% viral titer at 5 μM) | Average HCV copies/μg RNA (JFH-1 HCV [3]; 2.5 μM +IFN-β-1b (10 U/mL)): 1.1 × 10^5 copies/μg RNA; Fold Inhibition (JFH-1 HCV [3]; 2.5 μM +IFN-β-1b (10 U/mL)): 85 fold; Average HCV copies/μg RNA (JFH-1 HCV [3]; 2.5 μM, alone): 3.3 × 10^6 copies/μg RNA; Fold Inhibition (JFH-1 HCV [3]; 2.5 μM, alone): 3 fold; Average HCV copies/μg RNA (JFH-1 HCV [3]; 10 μM +IFN-β-1b (10 U/mL)): 9.6 × 10^4 copies/μg RNA; Fold Inhibition (JFH-1 HCV [3]; 10 μM +IFN-β-1b (10 U/mL)): 97 fold; Average HCV copies/μg RNA (JFH-1 HCV [3]; 10 μM, alone): 2.0 × 10^6 copies/μg RNA; Fold Inhibition (JFH-1 HCV [3]; 10 μM, alone): 5 fold; reduction of intracellular HCV RNA levels by the combination with IFN-β-1b (in words) (JFH-1 HCV [3]; combination with IFN-β-1b): more effective than that achieved with RBV; also recorded: reduces intracellular HCV RNA levels more effectively than either agent alone
29 | COc1cccc(-c2ccccc2NC(=O)C2CCN(Cc3cccc4ccccc34)CC2)c1 [Example 71] | + (“+” corresponds to ≦60% viral titer at 15 μM) | –
30 | COc1cccc(CN2CCC(C(=O)Nc3ccccc3-c3cccc(OC)c3)CC2)c1 [Example 33] | + (“+” corresponds to ≦60% viral titer at 15 μM) | –
31 | Cc1c[nH]c2ncnc(N3CCC(C(=O)Nc4cccc(Br)c4)CC3)c12 [Example 103] | – | BVDV Antiviral Activity [1]: + (“+” corresponds to ≦50 cell survival at 10 μM, and improved survival over untreated control)
